In ChEMBL document CHEMBL4321784, “Inhibiting Hedgehog: An Update on Pharmacological Compounds and Targeting Strategies” (J Med Chem, 2019):

Tests used:
Assay type in all cases: cell-based
Sonic hedgehog protein = Sonic hedgehog protein (Mus musculus, UniProt Q62226); test: Inhibition of sonic hedgehog signaling in mouse Shh Light2 cells after […] by Bright-Glo luciferase assay
[1] = target: Zinc finger protein GLI1/GLI2 (Mus musculus, UniProt P47806+Q0VGT2); test: Inhibition of GLI1/GLI2 in mouse Shh Light2 cells assessed as reduction in endogenous hedgehog signalling in presence of Smo agonist SAG by luciferase reporter gene assay
[2] = Inhibition of mouse Smo A1 mutant expressed in mouse Shh Light2 cells assessed as reduction in hedgehog pathway activation incubated for 30 hrs by luminescence assay
[3] = target: T1, Protein-cysteine N-palmitoyltransferase HHAT (Homo sapiens, UniProt Q5VTY9); test: Inhibition of HA/FLAG/His-tagged HHAT (unknown origin) expressed in 293FT cells assessed as enzyme-mediated sonic hedgehog palmitoylation incubated for 20 mins followed by [125I]iodo-palmitoyl CoA and Shh biotinylated peptide and measured after 1 hr by Scintillation proximity assay
[4] = target: T1, Protein-cysteine N-palmitoyltransferase HHAT; test: Inhibition of 3C-FLAG/His8-tagged human HHAT expressed in HEK293 cells assessed as reduction in enzyme-mediated sonic hedgehog (1 to 11 residues) palmitoylation by click-ELISA method

T1 sequence (Q5VTY9 whole entry, the tested form may be a part): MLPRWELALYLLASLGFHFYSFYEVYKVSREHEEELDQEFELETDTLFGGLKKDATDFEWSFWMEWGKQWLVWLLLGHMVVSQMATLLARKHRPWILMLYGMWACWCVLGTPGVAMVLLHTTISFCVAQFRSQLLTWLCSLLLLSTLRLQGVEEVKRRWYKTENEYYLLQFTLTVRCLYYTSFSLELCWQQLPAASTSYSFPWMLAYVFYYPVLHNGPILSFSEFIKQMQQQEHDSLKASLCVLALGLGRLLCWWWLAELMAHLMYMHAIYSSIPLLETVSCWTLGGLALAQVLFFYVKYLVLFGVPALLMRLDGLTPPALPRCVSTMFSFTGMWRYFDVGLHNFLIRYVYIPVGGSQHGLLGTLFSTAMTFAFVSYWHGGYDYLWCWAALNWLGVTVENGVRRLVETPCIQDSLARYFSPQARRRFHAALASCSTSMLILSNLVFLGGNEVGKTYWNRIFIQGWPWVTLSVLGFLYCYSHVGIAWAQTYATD
Chain of Sonic hedgehog protein (Q62226 25-198 limits assumed): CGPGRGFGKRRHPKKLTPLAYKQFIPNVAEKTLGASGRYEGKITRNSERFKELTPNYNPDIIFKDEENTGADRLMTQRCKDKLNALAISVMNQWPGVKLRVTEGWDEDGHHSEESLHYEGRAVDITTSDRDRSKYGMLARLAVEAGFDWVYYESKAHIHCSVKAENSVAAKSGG

For `O=C(C[C@@H]1C/C=C/CCC(=O)O[C@H](c2ccccc2)CNC1=O)NCc1ccc(Cl)cc1` [ROBOTNIKININ], which IC50 (Sonic hedgehog protein) is on record?
Its IC50 is 4 µM.

With `CN(C)c1ccccc1CN1CCCN(Cc2ccccc2N(C)C)C1c1ccncc1` as the compound, how does the IC50 [1] read?
Its IC50 is 5 µM.

With `CCC(C)n1ncn(-c2ccc(N3CCN(c4ccc(OCC5COC(Cn6cncn6)(c6ccc(Cl)cc6Cl)O5)cc4)CC3)cc2)c1=O` (stereo unspecified) [ITRACONAZOLE] as the compound, how does the IC50 [2] read?
Its IC50 is 0.8 µM.

For `CCC(C)CNCC(=O)N1CCc2sccc2C1COc1cccc(C)c1` (stereo unspecified), which IC50 [3] is on record?
Its IC50 is 0.85 µM.

Which IC50 [4] does the source give for `CCC(C)CNCC(=O)N1CCc2sccc2C1c1cccc(C)n1` (stereo unspecified) here?
Its IC50 is 0.2 µM.

For `c1cc(-c2sc(-c3ccncc3)c(-c3ccncc3)c2-c2ccncc2)ccn1`, which IC50 [1] is on record?
Its IC50 is 5 µM.
